Reference: PubChem BioAssay (NCI)
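The compound was tested at five concentrations on cells cultured in 96-well plates, with a 48-hour exposure period. GI50 marks 50% less growth. TGI marks complete inhibition of growth.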

Experiments:
Test in all cases: NCI tumour cell line growth inhibition, 48 h
[1] = system: A549 NSCLC
[2] = system: DLD-1 colon
[3] = system: SK-MEL-28 melanoma
[4] = system: OVCAR-5 ovarian
[5] = system: MALME-3M melanoma
[6] = system: KM12 colon
[7] = system: HOP-62 NSCLC
[8] = system: OVCAR-3 ovarian
[9] = system: SW-620 colon

Structure (SMILES)	TGI [1]	TGI [2]	TGI [3]	TGI [4]	TGI [5]	TGI [6]	TGI [7]	TGI [8]	TGI [9]	GI50 [1]	GI50 [3]	GI50 [4]	GI50 [5]	GI50 [6]	GI50 [7]	GI50 [8]	GI50 [9]
CN(C)c1ccc(/C=C/C(=O)c2ccccc2)cc1Br	> 100 µM	35.6 µM	30.5 µM	> 100 µM	43 µM	33.3 µM	> 100 µM	35.5 µM	43.8 µM								
O=c1cc2n(c(=O)[nH]1)C1OC(C(O)C1O)[C@H]2CCO (some centres undefined)	> 100 µM	> 100 µM	> 100 µM	> 100 µM	> 100 µM	> 100 µM	> 100 µM		> 100 µM								
C=C1C(=O)O[C@H]2[C@H]1CC/C(COC(=O)/C=C\C(=O)NCc1ccc(Cn3c(=O)sn(-c4ccc(OC)cc4)c3=O)cc1)=C\CC[C@@]1(C)O[C@@H]21	2.88 µM		1.55 µM	1.71 µM	1.56 µM	1.81 µM	10 µM	0.898 µM	1 µM	0.938 µM	0.825 µM	0.825 µM	0.806 µM	0.884 µM	2.76 µM	0.245 µM	0.272 µM
CCCn1cc(C2=C(c3cn(C)c4ccccc34)C(=O)NC2=O)c2ccccc21	> 25 µM		8.69 µM	> 25 µM	9.37 µM	7.92 µM	> 18.4 µM	2.35 µM	> 25 µM	1.86 µM	2.09 µM	6.76 µM	3.44 µM	1.14 µM	1.69 µM	0.596 µM	0.968 µM
O=C(CCc1nnc(-c2c(Cl)cccc2Cl)o1)c1nc2ccccc2[nH]1	> 100 µM		42.7 µM	> 100 µM	52.6 µM	11 µM	41.3 µM	24.8 µM	16.3 µM	10.4 µM	12.7 µM	7.82 µM	13 µM	3.16 µM	7.67 µM	5.63 µM	3.46 µM
CN(C)c1ccc(/C=C(\C#N)c2cc3ccccc3n2C)cc1	> 100 µM		> 100 µM	> 100 µM	> 100 µM	> 100 µM	> 100 µM	1.27 µM	> 100 µM	0.226 µM	1.07 µM	0.487 µM	0.133 µM	0.211 µM	0.296 µM	0.123 µM	0.0898 µM
CSC(=S)N/N=C/c1ccccc1	> 100 µM		> 100 µM	> 100 µM	> 100 µM	> 100 µM	> 100 µM	> 100 µM	> 100 µM								
O=C(Nc1ncc(Cc2ccccc2)s1)c1ccc2c(c1)OCCO2	> 100 µM		> 100 µM	> 100 µM	> 100 µM	32.9 µM	> 100 µM	1.01 µM	> 100 µM	0.0616 µM	0.0823 µM	0.096 µM	0.042 µM	0.0396 µM	0.078 µM	0.0336 µM	0.0435 µM
C#CC[C@@H]1C[C@]2(C)[C@H]3CC[C@@H]4[C@H]5[C@H](C(=C)C)CC[C@]5(C(=O)O)CC[C@@]4(C)[C@]3(C)CC[C@H]2C(C)(C)[C@H]1O	2.8 µM		7.6 µM	11.6 µM	5.83 µM	4.83 µM	5.28 µM	3.15 µM	4.28 µM	1.31 µM	2.75 µM	3.07 µM	2.53 µM	1.64 µM	2.08 µM	1.7 µM	1.98 µM
Fc1ccc(CNc2c3ccccc3nc3ccccc23)cc1	10.8 µM		11.6 µM	9.25 µM	5.48 µM	13.6 µM	16.7 µM	5.43 µM	6.84 µM	2.84 µM	3.27 µM	2.41 µM	2.18 µM	3.27 µM	3.58 µM	2.37 µM	1.95 µM
O=C1Nc2ccccc2C1(c1ccc(O)c(F)c1)c1ccc(O)c(F)c1	81.8 µM		52 µM	44.1 µM	46.6 µM	22.9 µM	44.5 µM	0.918 µM	84.3 µM	19.1 µM	14.4 µM	16.4 µM	13.7 µM	3.07 µM	16.9 µM	0.295 µM	20.6 µM
CC(=O)Oc1ccc2ccc(=O)oc2c1OC(C)=O	> 100 µM		> 100 µM	> 100 µM	> 100 µM	> 100 µM	> 100 µM	> 100 µM	> 100 µM								
COCC1C(=O)c2cc3c(cc2C12C=CC1(C=C2)OCCO1)OCO3 (centres undefined)	28.9 µM	6.5 µM	28.1 µM		27.4 µM	18.2 µM	36.2 µM	26.5 µM	8.76 µM								
COc1ccc(/C=C2\N=C(c3ccccc3)N(c3cc(C(F)(F)F)ccc3Cl)C2=O)cc1OC	> 100 µM		> 100 µM	> 100 µM	> 100 µM	> 100 µM	51 µM	> 100 µM	46.2 µM	82 µM	46.9 µM	> 100 µM	79.7 µM	39 µM	21.1 µM	37.9 µM	20.5 µM
CN(C)c1ccccc1CC(c1c[nH]c2ccccc12)c1c[nH]c2ccccc12	22.2 µM	30.4 µM		30.5 µM	31.4 µM	14.5 µM	23.3 µM	25.6 µM	19.2 µM								
O=C1Nc2cc(Cl)ccc2Oc2cc(Oc3ccccc3)ccc21	33.8 µM		32.8 µM	> 100 µM	47.4 µM	14 µM	20 µM	7.32 µM	16.9 µM	4.66 µM	5.94 µM	8.69 µM	10.9 µM	2.09 µM	5.68 µM	2.53 µM	2.73 µM

Structure (SMILES)	TGI [1]	TGI [2]	TGI [3]	TGI [4]	TGI [5]	TGI [6]	TGI [7]	TGI [8]	TGI [9]	GI50 [1]	GI50 [3]	GI50 [4]	GI50 [5]	GI50 [6]	GI50 [7]	GI50 [8]	GI50 [9]
O=C(/C=C/C=C/c1ccccc1)c1ccc(Nc2nc(Nc3ccccc3)nc(Nc3ccccc3)n2)cc1	> 100 µM		> 100 µM	> 100 µM	> 100 µM	> 100 µM	> 100 µM	> 100 µM	> 100 µM	89.1 µM	46.9 µM	> 100 µM	> 100 µM	57.9 µM	> 100 µM	47.8 µM	> 100 µM
COc1cc(C(=O)NC2CCN(C)CC2)ccc1Nc1ncc2c(n1)N(C1CCCC1)CC(F)(F)C(=O)N2C	4.38 µM		12.1 µM	12.1 µM	10.5 µM	14.1 µM	2.61 µM	3.9 µM	10.4 µM	< 0.0193 µM	0.0293 µM	0.0188 µM	2.64 µM	< 0.01 µM	< 0.0167 µM	< 0.01 µM	< 0.01 µM
CCCCCCCCCCCCOC1C(CNC(=O)C2OC3OC(C)(C)OC3C2NC(=O)CN2CCN(c3ccccn3)CC2)OC2OC(C)(C)OC21 (centres undefined)	3.07 µM		7.47 µM	8.35 µM	3.86 µM	4.43 µM	3.53 µM	3.02 µM	3.18 µM	1.6 µM	2.53 µM	4.11 µM	1.88 µM	2.16 µM	1.94 µM	1.54 µM	1.69 µM
Nc1ncnc2c1c(-c1cccc(OCc3ccccc3)c1)cn2C1CC(CN2CCCC2)C1 (centres undefined)	7.17 µM		2.8 µM	6.82 µM	5.7 µM	4.26 µM	5.5 µM	14.9 µM	3.53 µM	0.939 µM	1.4 µM	0.705 µM	2.06 µM	1.93 µM	1.99 µM	4.06 µM	1.03 µM
CCOC(=O)C1=C(N)Oc2c(sc3c(C)cccc23)C1c1ccc(Cl)cc1 (centres undefined)	18.8 µM		23.6 µM	15.7 µM	19.6 µM	13.3 µM	21.8 µM	9.61 µM	16.8 µM	3.9 µM	10.3 µM	4.03 µM	5.19 µM	1.62 µM	3.81 µM	2.69 µM	3.64 µM
CCCCCCCCCCCC1=NC(C)(C)CN1CCO	21.9 µM		4.35 µM	30.9 µM	29 µM	7.57 µM	16.2 µM	11.3 µM	3.94 µM	6.93 µM	2.12 µM	15.9 µM	10.2 µM	2.85 µM	4.6 µM	5.87 µM	1.95 µM
C=C1C(=O)O[C@H]2[C@H]1CC/C(C=Nc1ccc(C(F)(F)F)cc1N)=C\CC[C@@]1(C)O[C@@H]21	32.7 µM		20.2 µM	31.7 µM	26.2 µM	28.3 µM	26.5 µM	11.3 µM	13.2 µM	17.2 µM	5.85 µM	13.2 µM	11.1 µM	13.4 µM	12.8 µM	2.75 µM	3.67 µM
CCOC(=O)c1c[nH]c2c(OCc3ccccc3)c3ccccc3c(O)c2c1=O	> 56 µM		> 100 µM	> 100 µM	26.6 µM	> 84.5 µM	42.9 µM	51 µM	> 100 µM	9.33 µM	25.8 µM	54.7 µM	5.63 µM	6.89 µM	14.4 µM	11.1 µM	7.95 µM
O=C(CCCCCCC(=O)N/N=C/c1ccc(N(c2ccccc2)c2ccccc2)cc1)NO	9.51 µM		11.6 µM	2.94 µM	15 µM	13.1 µM	10.2 µM	4.58 µM	14.3 µM	2.99 µM	3.06 µM	0.417 µM	3.25 µM	2.72 µM	2.21 µM	1.45 µM	2.49 µM
C(=N/Nc1ncnc2nc[nH]c12)/c1ccccn1	> 100 µM		> 100 µM	> 100 µM	5.62 µM	> 100 µM	> 100 µM	> 47 µM	> 100 µM	1.27 µM	1.2 µM	1.02 µM	0.268 µM	0.661 µM	0.687 µM	0.421 µM	1.71 µM
CCCN(CCC)c1ccc(C=O)cc1	> 100 µM		> 100 µM	> 100 µM	> 100 µM	> 100 µM	> 100 µM	> 87.4 µM	> 100 µM	> 100 µM	> 100 µM	> 100 µM	> 81.2 µM	> 70.8 µM	> 88 µM	24.9 µM	54.7 µM
CC(C)(C)C(=O)OCOP(=O)(OCOC(=O)C(C)(C)C)C1CCCN(OC(=O)c2ccccc2)C1=O (centres undefined)	25.2 µM		3.57 µM	> 100 µM	5.44 µM	5.94 µM	18.7 µM	7.28 µM	24.4 µM	2.02 µM	1.05 µM	4.1 µM	0.457 µM	0.549 µM	1.9 µM	1.24 µM	1.42 µM
Cc1ccc(Cl)cc1Nc1nc(C(F)(F)F)ccc1C(=O)N/N=C/c1c(Cl)cccc1Cl	> 100 µM		32.1 µM	20.4 µM	5.44 µM	9.08 µM	2.29 µM	2.7 µM	12.2 µM	1.5 µM	1.84 µM	2.21 µM	1.69 µM	0.542 µM	0.745 µM	0.285 µM	0.475 µM
COc1ccc2nc3cccc([N+](=O)[O-])c3c(NCCN(CCO)CCO)c2c1	0.403 µM		0.414 µM	0.138 µM	0.0408 µM	0.202 µM	0.153 µM	0.0501 µM	0.619 µM	0.0257 µM	0.0444 µM	0.0291 µM	0.0158 µM	0.0367 µM	0.0304 µM	0.0187 µM	0.0139 µM
COc1ccc(Nc2c3c4c(cccc4[nH]c2=O)C(=O)c2ccccc2-3)cc1	> 32.1 µM		> 100 µM	> 90.1 µM	48.3 µM	0.181 µM	> 100 µM	< 0.0257 µM	> 100 µM	< 0.0221 µM	11 µM	0.0479 µM	0.0663 µM	< 0.0182 µM	0.0457 µM	< 0.0158 µM	< 0.0203 µM
